One may read the IC50 as the concentration needed to halve the response being measured.

The record followed here is patent US20230082430A1 (C4 Therapeutics, Inc., priority 2019, published 2023).

Molecules are shown by their SMILES. Counter-ions that a name gives are not always drawn.

One experiment relates to NCIH929.1 cells. Nature of the experiment: Cell viability assay for Table 2 (CellTiter-Glo 2.0, ATP quantification, 96 hr). The conditions noted are these: 96 h. It counts as cell-based. An excerpt:
Cell Viability Assay for Table 2
CellTiter-Glo® 2.0 Assay was purchased from Promega (Madison, Wis., USA). NCIH929.1 cell line was purchased from ATCC (Manassas, Va., USA). Cell culture flasks and 384-well microplates were acquired from VWR (Radnor, Pa., USA).
Consider `O=C1CCC(N2C(=O)c3cccc4c(Cc5cn(C6CCN(CC7(C(F)(F)F)CC7)CC6)nc5Cl)ccc2c34)C(=O)N1` (stereo not drawn) [Compound 201, 3-[6-[[3-chloro-1-[1-[[1-(trifluoromethyl)cyclopropyl]methyl]-4-piperidyl]pyrazol-4-yl]methyl]-2-oxo-benzo[cd]indol-1-yl]piperidine-2,6-dione], for which the IC50 was under 1 nM.

The same experiment, now with this note: 96 h, NCIH929.1 cell viability, 96 hr, top concentration 1 μM, 14 points half log titration; read-out: IC50.
With `O=C1CCC(N2C(=O)c3cccc4c(Cc5ccc(CN6CCC7(CCCO7)CC6)cc5)ccc2c34)C(=O)N1` (stereo not drawn) [Compound 215, 3-(6-(4-((1-oxa-8-azaspiro[4.5]decan-8-yl)methyl)benzyl)-2-oxobenzo[cd]indol-1(2H)-yl)piperidine-2,6-dione], the 50% inhibitory concentration (IC50) was under 1 nM.

Turning to `O=C1CCC(N2C(=O)c3cccc4c(Cc5ccc(CN6CC7CCC(C6)O7)cc5)ccc2c34)C(=O)N1` (stereo not drawn) [Compound 115, 3-(6-(4-((8-oxa-3-azabicyclo[3.2.1]octan-3-yl)methyl)benzyl)-2-oxobenzo[cd]indol-1(2H)-yl)piperidine-2,6-dione], the IC50 was under 1 nM.

With `CC1(C(=O)N2CCC(n3cc(Sc4ccc5c6c(cccc46)C(=O)N5C4CCC(=O)NC4=O)cn3)CC2)CCC1` (stereo not drawn) [Compound 174, 3-[6-[1-[1-(1-methylcyclobutanecarbonyl)-4-piperidyl]pyrazol-4-yl]sulfanyl-2-oxo-benzo[cd]indol-1-yl]piperidine-2,6-dione], the IC50 was under 1 nM.

Turning to `CC1(n2cc(Cc3ccc4c5c(cccc35)C(=O)N4C3CCC(=O)NC3=O)cn2)CCNCC1` (stereo not drawn) [Compound 69, 3-(6-((1-(4-methylpiperidin-4-yl)-1H-pyrazol-4-yl)methyl)-2-oxobenzo[cd]indol-1(2H)-yl)piperidine-2,6-dione hydrochloride], the IC50 is under 100 nM.

With `CC1(n2cc(Cc3ccc4c5c(cccc35)C(=O)N4C3CCC(=O)NC3=O)cn2)CCN(CC2(F)CC2)CC1` (stereo not drawn) [Compound 106, 3-(6-((1-(1-((1-fluorocyclopropyl)methyl)-4-methylpiperidin-4-yl)-1H-pyrazol-4-yl)methyl)-2-oxobenzo[cd]indol-1(2H)-yl)piperidine-2,6-dione], the IC50 is under 1 nM.

For the molecule `CC1(C(=O)N2CCC(c3ccc(Cc4ccc5c6c(cccc46)C(=O)N5C4CCC(=O)NC4=O)cc3)CC2)CCC1` (stereo not drawn) [Compound 169, 3-[6-[[4-[1-(1-methylcyclobutanecarbonyl)-4-piperidyl]phenyl]methyl]-2-oxo-benzo[cd]indol-1-yl]piperidine-2,6-dione], the 50% inhibitory concentration (IC50) is under 1 nM.

`CC1(n2cc(Cc3ccc4c5c(cccc35)C(=O)N4C3CCC(=O)NC3=O)cn2)CCN(CC2(C#N)CC2)CC1` (stereo not drawn) [Compound 102, 1-((4-(4-((1-(2,6-dioxopiperidin-3-yl)-2-oxo-1,2-dihydrobenzo[cd]indol-6-yl)methyl)-1H-pyrazol-1-yl)-4-methylpiperidin-1-yl)methyl)cyclopropane-1-carbonitrile]: the half-inhibitory concentration (IC50) is under 1 nM.

As for `O=C1CCC(N2C(=O)c3cccc4c(Cc5ccc(CN6CCN(C(=O)C7CC7)CC6)cc5)ccc2c34)C(=O)N1` (stereo not drawn) [Compound 112, 3-(6-(4-((4-(cyclopropanecarbonyl)piperazin-1-yl)methyl)benzyl)-2-oxobenzo[cd]indol-1(2H)-yl)piperidine-2,6-dione], the IC50 was under 1 nM.

With `CC1(C(=O)N2CCC(C)(n3cc(Cc4ccc5c6c(cccc46)C(=O)N5C4CCC(=O)NC4=O)cn3)CC2)CC1` (stereo not drawn) [Compound 83, 3-(6-((1-(4-methyl-1-(1-methylcyclopropane-1-carbonyl)piperidin-4-yl)-1H-pyrazol-4-yl)methyl)-2-oxobenzo[cd]indol-1(2H)-yl)piperidine-2,6-dione], the 50% inhibitory concentration (IC50) was under 1 nM.

`CC(C)(C)OC(=O)N1CCC(n2cc(Nc3ccc4c5c(cccc35)C(=O)N4C3CCC(=O)NC3=O)cn2)CC1` (stereo not drawn) [Compound 248, tert-butyl 4-[4-[[1-(2,6-dioxo-3-piperidyl)-2-oxo-benzo[cd]indol-6-yl]amino]pyrazol-1-yl]piperidine-1-carboxylate]: the IC50 is under 100 nM.

As to `CC1(C(=O)N2CCC(c3ccn(Cc4ccc5c6c(cccc46)C(=O)N5C4CCC(=O)NC4=O)n3)CC2)CCC1` (stereo not drawn) [Compound 180, 3-[6-[[3-[1-(1-methylcyclobutanecarbonyl)-4-piperidyl]pyrazol-1-yl]methyl]-2-oxo-benzo[cd]indol-1-yl]piperidine-2,6-dione], the 50% inhibitory concentration (IC50) is under 1 nM.

For the molecule `O=C1CCC(N2C(=O)c3cccc4c(Cc5ccc(CN6CCn7c(nnc7C(F)(F)F)C6)cc5)ccc2c34)C(=O)N1` (stereo not drawn) [Compound 121, 3-(2-oxo-6-(4-((3-(trifluoromethyl)-5,6-dihydro-[1,2,4]triazolo[4,3-a]pyrazin-7(8H)-yl)methyl)benzyl)benzo[cd]indol-1(2H)-yl)piperidine-2,6-dione], the IC50 was under 1 nM.

`CC(c1ccc(Cc2ccc3c4c(cccc24)C(=O)N3C2CCC(=O)NC2=O)cc1)N1CCN(c2ccccc2F)CC1` (single isomer, unassigned) [Compound 284, 3-[6-[[4-[1-[4-(2-fluorophenyl)piperazin-1-yl]ethyl]phenyl]methyl]-2-oxo-benzo[cd]indol-1-yl]piperidine-2,6-dione]: the IC50 was under 1 nM.

Take `O=C1CCC(N2C(=O)c3cccc4c(Cc5ccc(CN6CCN(CC7CC7)CC6)cc5)ccc2c34)C(=O)N1` (stereo not drawn) [Compound 113, 3-(6-(4-((4-(cyclopropylmethyl)piperazin-1-yl)methyl)benzyl)-2-oxobenzo[cd]indol-1(2H)-yl)piperidine-2,6-dione]: the IC50 is under 1 nM.

Turning to `CC1(C)C(N2CCC(n3cc(Cc4ccc5c6c(cccc46)C(=O)N5C4CCC(=O)NC4=O)cn3)CC2)C1(C)C` (stereo not drawn) [Compound 240, 3-(2-oxo-6-((1-(1-(2,2,3,3-tetramethylcyclopropyl)piperidin-4-yl)-1H-pyrazol-4-yl)methyl)benzo[cd]indol-1(2H)-yl)piperidine-2,6-dione], the concentration for half-maximal inhibition (IC50) was under 1 nM.

`N#Cc1ccc(N2CCN(Cc3cnn(Cc4ccc5c6c(cccc46)C(=O)N5C4CCC(=O)NC4=O)c3)CC2)c(F)c1` (single isomer, unassigned) [Compound 129, 4-[4-[[1-[[1-[2,6-dioxo-3-piperidyl]-2-oxo-benzo[cd]indol-6-yl]methyl]pyrazol-4-yl]methyl]piperazin-1-yl]-3-fluoro-benzonitrile]: the IC50 was under 1 nM.

`COC1(CN2CCC(C)(n3cc(Cc4ccc5c6c(cccc46)C(=O)N5C4CCC(=O)NC4=O)cn3)CC2)CC1` (stereo not drawn) [Compound 101, 3-(6-((1-(1-((1-methoxycyclopropyl)methyl)-4-methylpiperidin-4-yl)-1H-pyrazol-4-yl)methyl)-2-oxobenzo[cd]indol-1(2H)-yl)piperidine-2,6-dione]: the 50% inhibitory concentration (IC50) was under 1 nM.

Take `CC1(C(=O)N2CCC(n3cc(Cc4ccc5c6c(cccc46)C(=O)N5C4CCC(=O)NC4=O)c4cccnc43)CC2)CCC1` (stereo not drawn) [Compound 253, 3-[6-[[1-[1-(1-methylcyclobutanecarbonyl)-4-piperidyl]pyrrolo[2,3-b]pyridin-3-yl]methyl]-2-oxo-benzo[cd]indol-1-yl]piperidine-2,6-dione]: the half-inhibitory concentration (IC50) was under 1 nM.

Regarding `CC1(CN2CCN(c3ccc(Cc4ccc5c6c(cccc46)C(=O)N5C4CCC(=O)NC4=O)cc3)CC2)CCC1` (stereo not drawn) [Compound 168, 3-[6-[[4-[4-[(1-methylcyclobutyl)methyl]piperazin-1-yl]phenyl]methyl]-2-oxo-benzo[cd]indol-1-yl]piperidine-2,6-dione], the IC50 was under 1 nM.

With `CN1CCN(Cc2ccc(Cc3ccc4c5c(cccc35)C(=O)N4C3CCC(=O)NC3=O)cc2)CC1` (stereo not drawn) [Compound 114, 3-(6-(4-((4-methylpiperazin-1-yl)methyl)benzyl)-2-oxobenzo[cd]indol-1(2H)-yl)piperidine-2,6-dione], the IC50 was under 1 nM.

In the case of `CN1C(=O)CCC(N2C(=O)c3cccc4c(Cc5cnn(C6CCN(CC7(C)CCC7)CC6)c5)ccc2c34)C1=O` (stereo not drawn) [Compound 294, 1-methyl-3-(6-((1-(1-((1-methylcyclobutyl)methyl)piperidin-4-yl)-1H-pyrazol-4-yl)methyl)-2-oxobenzo[cd]indol-1(2H)-yl)piperidine-2,6-dione], the half-maximal inhibitory concentration (IC50) is under 100 nM.

With `CC1(C(=O)N2CCC(n3cc(Nc4ccc5c6c(cccc46)C(=O)N5C4CCC(=O)NC4=O)c(Cl)n3)CC2)CCC1` (stereo not drawn) [Compound 251, 3-[6-[[3-chloro-1-[1-(1-methylcyclobutanecarbonyl)-4-piperidyl]pyrazol-4-yl]amino]-2-oxo-benzo[cd]indol-1-yl]piperidine-2,6-dione], the IC50 was under 100 nM.

Still in this experiment, the particulars now being: NCIH929.1 cell viability, 96 hr, top concentration 1 μM, 14 points half log titration; read-out: IC50.
On to `CC1(CN2CCC(n3cc(Cc4ccc5c6c(cccc46)C(=O)N5C4CCC(=O)NC4=O)cn3)CC2)CC1` (single isomer, unassigned) [Compound 235, 3-[6-[[1-[1-[(1-methylcyclopropyl)methyl]-4-piperidyl]pyrazol-4-yl]methyl]-2-oxo-benzo[cd]indol-1-yl]piperidine-2,6-dione], for which the IC50 is under 1 nM.

With `O=C1CCC(N2C(=O)c3cccc4c(Cc5cnn(C6CCN(C7CCC78CCC8)CC6)c5)ccc2c34)C(=O)N1` (single isomer, unassigned) [Compound 245, 3-{2-Oxo-6-[1-(1-spiro[3.3]hept-1-yl-piperidin-4-yl)-1H-pyrazol-4-ylmethyl]-2H-benzo[cd]indol-1-yl}-piperidine-2,6-dione], the 50% inhibitory concentration (IC50) was under 1 nM.

For `O=C1CCC(N2C(=O)c3cccc4c(Cc5ccc(CN6CCN(c7ccccc7F)CC6)cc5)ccc2c34)C(=O)N1` (single isomer, unassigned) [Compound 190, 3-[6-[[4-[[4-(2-fluorophenyl)piperazin-1-yl]methyl]phenyl]methyl]-2-oxo-benzo[cd]indol-1-yl]piperidine-2,6-dione], the 50% inhibitory concentration (IC50) was under 100 nM.

Take `O=C1CCC(N2C(=O)c3cccc4c(Cc5ccc(CN6CCN(c7ccc(F)cc7F)CC6)cc5)ccc2c34)C(=O)N1` (single isomer, unassigned) [Compound 257, 3-(6-(4-((4-(2,4-difluorophenyl)piperazin-1-yl)methyl)benzyl)-2-oxobenzo[cd]indol-1(2H)-yl)piperidine-2,6-dione]: the IC50 is under 1 nM.
